Test systems include SK-OV-3 ovarian; HCT-116 colon; SK-MEL-5 melanoma; PC-3 prostate; UACC-257 melanoma; MDA-MB-231 breast; ACHN renal; A549 NSCLC; RXF 393 renal; DU-145 prostate; KM12 colon; BT-549 breast; UO-31 renal; HS 578T breast; EKVX NSCLC; A498 renal; OVCAR-8 ovarian; OVCAR-4 ovarian; M14 melanoma; RPMI-8226 leukemia.
Holding throughout (assay): NCI anticancer screen, dose series, 48 h

Structures are written as SMILES.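 Five compound concentrations were applied to cells in 96-well plates for 48 hours; endpoints were derived by simple linear interpolation of the resulting dose-response curve. At the TGI there is no net growth.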

`COC(=O)c1ccccc1C1CN=NC12Cc1cc(C)c(C)cc1C2=O` (configuration not stated): the TGI with SK-OV-3 ovarian was over 100 µM; in the assay on HCT-116 colon, over 100 µM; in the assay with SK-MEL-5 melanoma it was 38.1 µM; with PC-3 prostate it was over 100 µM; with UACC-257 melanoma it was 44.9 µM; in the assay with MDA-MB-231 breast it was over 100 µM. Further, the TGI in the assay on ACHN renal, in the assay on A549 NSCLC, with RXF 393 renal, with DU-145 prostate, in the assay with KM12 colon and in the assay with BT-549 breast was over 100 µM in each case. In addition, the TGI in the assay with UO-31 renal, in the assay on HS 578T breast, in the assay on EKVX NSCLC, in the assay on A498 renal, in the assay on OVCAR-8 ovarian and in the assay with OVCAR-4 ovarian was over 100 µM throughout. The same compound returned a TGI in the assay with M14 melanoma of over 100 µM.
With `CC(C)c1cccc(C(=O)NCCN(C)C)c1[N+](=O)[O-]`, the TGI with SK-OV-3 ovarian, with HCT-116 colon, with SK-MEL-5 melanoma, in the assay with PC-3 prostate, with UACC-257 melanoma and in the assay on MDA-MB-231 breast was over 100 µM in each case. The TGI in the assay on ACHN renal is over 100 µM; in the assay with A549 NSCLC it was over 100 µM; in the assay on DU-145 prostate it was over 100 µM; with KM12 colon, over 100 µM; in the assay with BT-549 breast it was 97.4 µM; in the assay on UO-31 renal, over 100 µM. For the same compound, the TGI in the assay on HS 578T breast, in the assay with A498 renal, in the assay on OVCAR-8 ovarian and with M14 melanoma was over 100 µM in each case.
On to `NC(=S)N/N=c1\cc(C(=O)Nc2ccc([N+](=O)[O-])cc2[N+](=O)[O-])oc2ccccc12`, for which the TGI in the assay on SK-OV-3 ovarian, in the assay on HCT-116 colon, with SK-MEL-5 melanoma, in the assay on PC-3 prostate, in the assay on UACC-257 melanoma and in the assay with MDA-MB-231 breast was over 100 µM in each case. The TGI with ACHN renal, in the assay with A549 NSCLC, in the assay with RXF 393 renal, in the assay with DU-145 prostate, in the assay on KM12 colon and in the assay with BT-549 breast was over 100 µM each time. Further, the TGI in the assay on UO-31 renal, with HS 578T breast, with EKVX NSCLC, in the assay with OVCAR-8 ovarian, in the assay on OVCAR-4 ovarian and with M14 melanoma was over 100 µM each time.
Regarding `CN(C)CCc1ccnc2nc(-c3ccc4ccccc4c3)cn12`, the TGI with SK-OV-3 ovarian, in the assay on HCT-116 colon, in the assay with SK-MEL-5 melanoma, in the assay with PC-3 prostate, in the assay with UACC-257 melanoma and with MDA-MB-231 breast was over 100 µM throughout. Also, the TGI is over 100 µM in the assay with ACHN renal; over 100 µM in the assay with A549 NSCLC; over 100 µM with RXF 393 renal; over 100 µM with DU-145 prostate; 44.3 µM with KM12 colon; 69 µM in the assay with BT-549 breast. Besides, the TGI is over 100 µM with UO-31 renal; 52.8 µM with HS 578T breast; over 100 µM in the assay on EKVX NSCLC; 92.7 µM in the assay with OVCAR-8 ovarian; over 100 µM with OVCAR-4 ovarian; over 100 µM with RPMI-8226 leukemia. This compound showed a TGI with M14 melanoma of over 100 µM.
On to `CN(/N=C\c1ccc2ccccc2c1)C1=NCCN1`, for which the TGI in the assay on SK-OV-3 ovarian is over 100 µM; with HCT-116 colon, 31.8 µM; with SK-MEL-5 melanoma it was 28.6 µM; with UACC-257 melanoma it was 29.5 µM; with MDA-MB-231 breast, 36.1 µM; in the assay on ACHN renal it was 60 µM. In addition, the TGI with A549 NSCLC was 36.3 µM; with RXF 393 renal, 23.9 µM; in the assay with DU-145 prostate, over 100 µM; with KM12 colon it was 32.8 µM; with BT-549 breast it was 29.9 µM; in the assay with UO-31 renal, 31.7 µM. For the same compound, the TGI in the assay on HS 578T breast is 47.5 µM; in the assay on EKVX NSCLC, 63.3 µM; in the assay on A498 renal it was 28.6 µM; with OVCAR-8 ovarian, over 100 µM; in the assay with OVCAR-4 ovarian, 73 µM; in the assay with RPMI-8226 leukemia, 48 µM.
In the case of `COC(=O)c1nc(-c2nc(CCNC(=O)OC(C)(C)C)sc2Cl)sc1Cl`, the TGI in the assay with SK-OV-3 ovarian, in the assay on HCT-116 colon, in the assay on SK-MEL-5 melanoma, with PC-3 prostate, in the assay with UACC-257 melanoma and with ACHN renal was over 100 µM throughout. Also, the TGI in the assay on A549 NSCLC, in the assay on RXF 393 renal, in the assay with DU-145 prostate, in the assay on KM12 colon, in the assay with BT-549 breast and in the assay with UO-31 renal was over 100 µM throughout. Also, the TGI in the assay on HS 578T breast, in the assay on EKVX NSCLC, in the assay on A498 renal, with OVCAR-8 ovarian, in the assay on RPMI-8226 leukemia and in the assay with M14 melanoma was over 100 µM throughout.
With `Cc1cc(=O)oc2c3c(ccc12)OC(c1ccc(Br)cc1)CC3=O` (configuration not stated), the TGI with SK-OV-3 ovarian stood at 30.3 µM; in the assay on HCT-116 colon, 23.8 µM; in the assay with SK-MEL-5 melanoma, 24.5 µM; in the assay with PC-3 prostate it was 47.9 µM; in the assay with UACC-257 melanoma, 27.9 µM; in the assay with MDA-MB-231 breast, 37.8 µM. Also, the TGI is 29.4 µM in the assay with ACHN renal; 34.8 µM in the assay on A549 NSCLC; 33.1 µM with KM12 colon; 11.4 µM with BT-549 breast; 21.9 µM with UO-31 renal; 38.2 µM in the assay with HS 578T breast. Also, the TGI with EKVX NSCLC is 31.8 µM; in the assay on OVCAR-8 ovarian, 33.7 µM; with OVCAR-4 ovarian, over 100 µM; with RPMI-8226 leukemia, over 100 µM; with M14 melanoma it was 31.6 µM.
Take `CC1(C)CC(=O)c2c(nc(SSc3nc4c(c(-c5ccc(Br)cc5)c3C#N)C(=O)CC(C)(C)C4)c(C#N)c2-c2ccc(Br)cc2)C1`: the TGI in the assay on SK-OV-3 ovarian, with HCT-116 colon, with SK-MEL-5 melanoma, in the assay with PC-3 prostate, in the assay with UACC-257 melanoma and in the assay with ACHN renal was over 10 µM throughout. The TGI in the assay on A549 NSCLC, in the assay with RXF 393 renal, in the assay with DU-145 prostate, in the assay with KM12 colon, in the assay with BT-549 breast and in the assay with UO-31 renal was over 10 µM each time. Also, the TGI in the assay on HS 578T breast, in the assay on EKVX NSCLC, in the assay with A498 renal, in the assay with OVCAR-8 ovarian, in the assay with OVCAR-4 ovarian and with RPMI-8226 leukemia was over 10 µM in each case. In the assay with M14 melanoma, this compound yielded a TGI of over 10 µM.
In the case of `O=C(NCCNCCNC(=O)C(F)(F)F)C(F)(F)F`, the TGI in the assay with SK-OV-3 ovarian, with HCT-116 colon, in the assay with SK-MEL-5 melanoma, with PC-3 prostate, in the assay with UACC-257 melanoma and with MDA-MB-231 breast was over 100 µM in each case. For the same compound, the TGI with ACHN renal, in the assay on A549 NSCLC, with RXF 393 renal, with DU-145 prostate, with KM12 colon and in the assay on BT-549 breast was over 100 µM in each case. Moreover, the TGI in the assay with UO-31 renal, with HS 578T breast, with EKVX NSCLC, with OVCAR-8 ovarian, in the assay on OVCAR-4 ovarian and in the assay on RPMI-8226 leukemia was over 100 µM in each case. Besides, the TGI in the assay with M14 melanoma is over 100 µM.
As to `O=[N+]([O-])C(=C(Nc1ccccc1)Nc1ccccc1)/C(Cl)=C(\Cl)Br`, the TGI with HCT-116 colon came to 20.1 µM; in the assay with PC-3 prostate, 30.7 µM; in the assay with UACC-257 melanoma it was 27.8 µM; in the assay with MDA-MB-231 breast it was 29 µM; in the assay with ACHN renal it was 25 µM; with A549 NSCLC it was 51.1 µM. Further, the TGI was 31.1 µM with DU-145 prostate; 26.2 µM in the assay with KM12 colon; 60.5 µM in the assay with BT-549 breast; 21.7 µM in the assay with UO-31 renal; over 100 µM with HS 578T breast; 32.1 µM in the assay with EKVX NSCLC. For the same compound, the TGI in the assay with A498 renal worked out at 35.6 µM; with OVCAR-8 ovarian, 37 µM; with OVCAR-4 ovarian, 27.3 µM; in the assay with RPMI-8226 leukemia, 18.8 µM; in the assay on M14 melanoma, 20.1 µM.
On to `COc1ccc2c(c1)CCC1=C/C(=N\NC(N)=O)CCC12C` (configuration not stated), for which the TGI in the assay on SK-OV-3 ovarian, in the assay on HCT-116 colon, with SK-MEL-5 melanoma, in the assay with PC-3 prostate, in the assay with UACC-257 melanoma and in the assay on MDA-MB-231 breast was over 10 µM each time. Moreover, the TGI in the assay on ACHN renal, with A549 NSCLC, with DU-145 prostate, in the assay with KM12 colon, in the assay on BT-549 breast and in the assay with HS 578T breast was over 10 µM in each case. For the same compound, the TGI in the assay on OVCAR-8 ovarian, in the assay on OVCAR-4 ovarian, in the assay on RPMI-8226 leukemia and in the assay with M14 melanoma was over 10 µM throughout.
Consider `Cn1c2ccccc2c2nc3ccccc3c(Cl)c21`, for which the TGI with SK-OV-3 ovarian, in the assay on HCT-116 colon, with PC-3 prostate, in the assay on UACC-257 melanoma, with MDA-MB-231 breast and in the assay with A549 NSCLC was over 100 µM throughout. Further, the TGI in the assay with RXF 393 renal, in the assay on DU-145 prostate, with KM12 colon, in the assay on BT-549 breast, with HS 578T breast and with A498 renal was over 100 µM throughout. Also, the TGI in the assay with OVCAR-8 ovarian, in the assay with OVCAR-4 ovarian, in the assay on RPMI-8226 leukemia and in the assay on M14 melanoma was over 100 µM in each case.
